Consider five compounds from paper PMC12567096, “An Efficacy- and In Vivo Exposure-Oriented Integrated Study to Investigate the Effective Components of Qishen Granule” (Pharmaceuticals, 2025).

Read-outs that look alike come from different tables or passages of the source.

As a reminder, the Cmax is the peak of the concentration-time curve. The term MRT denotes a mean duration of stay, worked out from the concentration-time curve. For orientation: Tmax means the time at which the peak concentration occurs. One may read the EC50 as the concentration at which the effect is half-maximal. Lower therefore signals greater potency. A word on the inhibition: it is the change of the read-out against control, counted positive when it falls. As usually defined, the AUC is concentration integrated over time. A lower AUC goes with low exposure. In general, AUC(0-t) refers to exposure summed from dosing to a finite time, without extrapolation to infinity. A higher AUC(0-t) goes with more exposure. The half-life is the time needed for the level to fall by half in the phase considered. One may read the AUC(0-inf) as the area under the concentration-time curve extrapolated to infinity. Read a low AUC(0-inf) as less exposure.

The subject of one data set is H9c2 cells. In words: Cytotoxicity on H9c2 cells (CCK-8). The settings on record: for Inhibition rate / inhibition at 25 µM / inhibition at 50 µM / inhibition at 100 µM: H9c2 cells, n=3; for Effect on H9c2 cell viability / cytotoxicity (in words): CCK-8, compared to the control group; for inhibition at 25 µM / inhibition at 50 µM / inhibition at 100 µM: Rattus norvegicus, read-out: Inhibition rate. It is filed as cell-based, rat. Put shortly: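 Rat myocardial H9c2 cells were grown in DMEM containing 10% fetal bovine serum, Penicillin (100 U/mL) and Streptomycin (100 μg/mL) at 37 °C in humidified 5% CO2 and 95% air. For cytotoxicity testing, cells were plated in 96-well plates at 1 × 10^4 cells/well. Viability was measured with CCK-8, adding 10 μL per well, incubating 1 h, and reading absorbance at 450 nm on a microplate reader.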

The nature of data set [1]: Pharmacokinetic study in rats after oral administration of QSG. The following applies: for AUCi: exposure (AUC0→∞) of the component in rats after oral QSG, as used for ECI; for Oral relative bioavailability: exposure level (AUC0→∞) compared with the dosage of each compound in QSG; for Absorption efficiency / bioavailability (in words): from Table S12, rats; for AUC(0-inf): AUC0→∞.
Description: (§1) Ion source parameters were set as follows: temperatures of drying gas and sheath gas were 300 °C and 300 °C, flow rates of drying gas and sheath gas were 7 L/min and 11 L/min, the nebulizer was set at 35 psig, capillary voltage was 3500 V (−), and nozzle voltage was 2000 V (−). […] Chromatographic separations were conducted on a ZORBAX Eclipse Plus C18 column (3.0 × 50 mm, 1.8 μm, Agilent Technologies, California, USA). The mobile phase was composed of 0.1% aqueous FA (A, (v/v)) and 0.1% formic acid methanol (B), the flow rate was set at 0.5 mL/min, and the column oven was maintained at 40 °C.
(§2) Protein precipitation was carried out for each time point for plasma samples, calibration samples, or QC samples by introducing four volumes of acetonitrile containing 400 ng/mL of icariin. Then, 10 μL 10% aqueous ascorbic acid (v/v) was spiked into each sample to prevent the oxidation of phenolic compounds. […] An aliquot (450 μL) of the supernatant was transferred and dried under nitrogen vacuum.
(§3) The pharmacokinetic parameters were calculated by DAS software (version 2.0) for a non-compartmental analysis.

A further data set concerns OGD/R-induced H9c2 cells. In words: Protective effect on OGD/R-induced H9c2 cells (CCK-8 cell viability). The following applies: for H9c2 cell survival after OGD/R (in words): 1, 10, 25, 50 and 100 μM prior to OGD/R, vs model group; for EC50: protective effect against OGD/R injury, H9c2 cell viability. The data set is classed as cell-based, rat. Put shortly: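 Rat H9c2 cardiomyocytes were treated with analytes at 25 and 50 μM for cytotoxicity, or at 1–100 μM before OGD/R (4 h glucose-free hypoxia, then 2 h normoxic reoxygenation). Viability was read by CCK-8 after 1 h, as absorbance at 450 nm.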

A short description of data set [2]: Concentrations of 24 analytes in QSG treated plasma (Table S5). The following applies: for Concentration: QSG treated plasma, n = 5; for concentration at 0.08 h / concentration at 0.17 h / concentration at 0.5 h / concentration at 1 h / concentration at 2 h / concentration at 4 h / concentration at 8 h / concentration at 12 h: Sprague Dawley, rat, plasma, oral, 7 g/kg.

The conditions of data set [3]: rat, in vivo.
Description: as §1, §2, §3
Where [4] appears, read: rat plasma, single oral 7 g/kg QSG, n = 6.
Setting [5] is: Sprague Dawley, rat, plasma, po, 7 g/kg.
The mark [6] stands for this setting: Sprague Dawley, rat, plasma, po, 7 g/kg, rat plasma, single oral 7 g/kg QSG, n = 6.

Consider `O=C(/C=C/c1ccc(O)c(O)c1)O[C@H]1[C@H](O)C[C@](O)(C(=O)O)C[C@H]1OC(=O)/C=C/c1ccc(O)c(O)c1` [Isochlorogenic acid C], for which the Inhibition rate in the data set on H9c2 cells (25 μM) is on record as -11.8 ± 6.3%; with H9c2 cells (50 μM), -16.6 ± 1.3%; with H9c2 cells (100 μM), -6.3 ± 2.3%. Further, the “Effect on H9c2 cell viability / cytotoxicity (in words)” value in the data set with H9c2 cells is listed as “significantly enhanced cell viabilities”. In addition, the “AUC0→∞” value came to 0.1705 µg·h/mL in data set [1] (Table S12, rats, oral QSG) and 0.1705 ± 0.08002 µg·h/mL in data set [1] (setting [4]). The compound further gave an AUCi in data set [1] of 170.5. The same compound came in with an Oral relative bioavailability in data set [1] of 0.008%. The “Absorption efficiency / bioavailability (in words)” value in data set [1] (oral QSG) was “less readily absorbed”. The AUC0→t in data set [1] (setting [4]) is 0.1163 ± 0.03963 µg·h/mL. Moreover, the Cmax in data set [1] (setting [4]) turned out to be 33.95 ± 8.980 ng/mL. Besides, the MRT in data set [1] (setting [4]) is 8.361 ± 4.800 h. The T1/2 in data set [1] (setting [4]) was 16.43 ± 14.14 h. Moreover, the Tmax in data set [1] (setting [4]) is 0.334 ± 0.165 h. Further, in data set [1] (rats, oral QSG), the “Shape of the plasma concentration–time curve (in words)” value (shortened to “Shape”) is listed as “Double peaks”. Besides, the “H9c2 cell survival after OGD/R (in words)” value (“H9c2 cell survival” below) with OGD/R-induced H9c2 cells was “significantly improve H9c2 cell survival rates”. This compound showed an EC50 with OGD/R-induced H9c2 cells of 1.09 µM. Besides, the Concentration came out at 12.829 ± 7.386 ng/mL in data set [2] (0.08 h); 23.904 ± 9.523 ng/mL in data set [2] (0.17 h); 18.491 ± 8.090 ng/mL in data set [2] (0.5 h); 11.005 ± 7.334 ng/mL in data set [2] (1 h); 7.777 ± 3.293 ng/mL in data set [2] (2 h); 2.637 ± 2.154 ng/mL in data set [2] (4 h). In addition, the Concentration in data set [2] (8 h) came to 7.703 ± 2.363 ng/mL; in data set [2] (12 h) it was 1.848 ± 1.625 ng/mL.
Consider `O=C(/C=C/c1ccc(O)cc1)c1ccc(O)cc1O` [Isoliquiritigenin], for which the inhibition at 25 µM in the data set on H9c2 cells (25 μM) is -14.9 ± 9.3%. The inhibition at 50 µM in the data set on H9c2 cells (50 μM) is -1.2 ± 7.6%. Moreover, in the data set on H9c2 cells (100 μM), the inhibition at 100 µM is 7.2 ± 4.2%. Further, in data set [1] (setting [5]), the AUC is 0.00489 µg·h/mL, the AUC(0-t) came to 0.00317 ± 0.000843 µg·h/mL, the concentration peaked (Cmax) at 1.65 ± 0.585 ng/mL and the MRT worked out at 7.68 ± 2.17 h. In data set [1] (setting [5]), the Tmax was 0.17 h and the half-life is 12.4 ± 10.5 h. In data set [1] (Sprague Dawley, rat, plasma, po, 7 g/kg, Table S12, rats, oral QSG), this compound displayed an AUC(0-inf) of 0.00489 µg·h/mL. The compound also displayed a total exposure AUC(0-inf) in data set [1] (setting [6]) of 0.00489 ± 0.00277 µg·h/mL. In addition, the “Shape” value in data set [1] (rats, oral QSG) is given as “Double peaks”. Moreover, the “H9c2 cell survival” value with OGD/R-induced H9c2 cells is listed as “significantly improve H9c2 cell survival rates”. The EC50 in the data set on OGD/R-induced H9c2 cells (Rattus norvegicus) came out at 10.3 µM. In data set [2], the concentration at 0.08 h was 0.69 ± 0.227 ng/mL, the concentration at 0.17 h was 1.65 ± 0.585 ng/mL, the concentration at 0.5 h amounted to 0.454 ± 0.151 ng/mL and the concentration at 1 h amounted to 0.355 ± 0.17 ng/mL. Besides, in data set [2], the concentration at 2 h stood at 0.179 ± 0.041 ng/mL, the concentration at 4 h is 0.231 ± 0.054 ng/mL, the concentration at 8 h came out at 0.053 ± 0.038 ng/mL and the concentration at 12 h is 0.124 ± 0.092 ng/mL.
`O=c1cc(-c2ccc(O)c(O)c2)oc2cc(O)cc(O)c12` [Luteolin]: the inhibition at 25 µM in the data set with H9c2 cells (25 μM) stood at 12.2 ± 4%. In addition, in the data set on H9c2 cells (50 μM), the inhibition at 50 µM was found to be 13.1 ± 7.2%. The inhibition at 100 µM in the data set on H9c2 cells (100 μM) was determined as 18.1 ± 4.2%. In data set [1] (setting [5]), this compound yielded an AUC of 0.0109 µg·h/mL, an exposure AUC(0-t) of 0.0103 ± 0.00093 µg·h/mL, a Cmax of 12.8 ± 4.12 ng/mL and an MRT of 1.84 ± 0.448 h. Further, in data set [1] (setting [5]), the Tmax was 0.17 h and the half-life is 2.6 ± 1.22 h. The same compound had an AUC(0-inf) in data set [1] (setting [6]) of 0.0109 ± 0.000867 µg·h/mL. In addition, the “H9c2 cell survival” value in the data set with OGD/R-induced H9c2 cells is “significantly improve H9c2 cell survival rates”. The compound also showed a half-maximal effective concentration (EC50) in the data set on OGD/R-induced H9c2 cells (Rattus norvegicus) of 11.3 µM. For the same compound, in data set [2], the concentration at 0.08 h worked out at 5.84 ± 1.29 ng/mL, the concentration at 0.17 h is 13.6 ± 4.12 ng/mL, the concentration at 0.5 h was found to be 4.37 ± 1.59 ng/mL and the concentration at 1 h is 2.41 ± 0.697 ng/mL. In data set [2], this compound registered a concentration at 2 h of 0.911 ± 0.249 ng/mL, a concentration at 4 h of 0.251 ± 0.183 ng/mL, a concentration at 8 h of 0.188 ± 0.101 ng/mL and a concentration at 12 h of 0.042 ± 0.044 ng/mL.
Consider `O=c1cc(-c2ccc(O)c(O)c2)oc2cc(O[C@@H]3O[C@H](CO)[C@@H](O)[C@H](O)[C@H]3O)cc(O)c12` [Luteoloside], for which the Inhibition rate was -4.2 ± 4.7% in the data set with H9c2 cells (25 μM), 8.1 ± 5.7% in the data set on H9c2 cells (50 μM) and 4.1 ± 1.7% with H9c2 cells (100 μM). The “H9c2 cell survival” value in the data set with OGD/R-induced H9c2 cells is on record as “significantly improve H9c2 cell survival rates”. In addition, the Oral relative bioavailability in data set [3] came out at 0.019%. The “AUC0→∞” value in data set [3] (po) was found to be 0.02086 µg·h/mL; in data set [3] (po, 7 g/kg), 0.02086 ± 0.006586 µg·h/mL. Besides, the “Shape” value in data set [3] (po) is recorded as “Double peaks”. This compound also showed an AUC0→t in data set [3] (po, 7 g/kg) of 0.01239 ± 0.002708 µg·h/mL. In data set [3] (po, 7 g/kg), this compound returned a T1/2 of 21.76 ± 16.85 h.
With Salvianolic acid B, the Inhibition rate is reported as -38.9 ± 5.2% in the data set with H9c2 cells (25 μM), -17.1 ± 7.2% in the data set on H9c2 cells (50 μM) and 0.1 ± 3.2% in the data set with H9c2 cells (100 μM). The “Effect on H9c2 cell viability / cytotoxicity (in words)” value in the data set on H9c2 cells is recorded as “significantly enhanced cell viabilities”. The “AUC0→∞” value was found to be 2.176 µg·h/mL in data set [1] (Table S12, rats, oral QSG) and 2.176 ± 0.8423 µg·h/mL in data set [1] (setting [4]). Also, in data set [1], the AUCi was 2176. The compound also displayed an Oral relative bioavailability in data set [1] of 0.013%. In addition, the “Absorption efficiency / bioavailability (in words)” value in data set [1] (oral QSG) was “much lower than most compounds”. In data set [1] (setting [4]), this compound had an AUC0→t of 1.475 ± 0.1874 µg·h/mL. The compound further returned a Cmax in data set [1] (setting [4]) of 205.3 ± 65.50 ng/mL. Also, the MRT in data set [1] (setting [4]) was 11.08 ± 1.809 h; in data set [1] (rat plasma, single oral 7 g/kg QSG, n = 6, listed as salvianolic acid B), “more than 10 h”. The compound also gave a T1/2 in data set [1] (setting [4]) of 10.83 ± 5.740 h. For the same compound, the Tmax in data set [1] (setting [4]) is recorded as 0.566 ± 0.182 h. For the same compound, the “Shape” value in data set [1] (rats, oral QSG) is “Double peaks”. Moreover, in data set [1] (rats, oral QSG, 11 analytes), the “Share of the total exposures (AUC0→∞) of all analytes” value was determined as 43.48%. The “H9c2 cell survival” value in the data set on OGD/R-induced H9c2 cells is on record as “significantly improve H9c2 cell survival rates”. For the same compound, the Concentration is 68.337 ± 49.223 ng/mL in data set [2] (0.08 h); 115.490 ± 60.235 ng/mL in data set [2] (0.17 h); 174.763 ± 84.875 ng/mL in data set [2] (0.5 h); 83.989 ± 21.934 ng/mL in data set [2] (1 h); 47.989 ± 9.996 ng/mL in data set [2] (2 h); 34.225 ± 16.349 ng/mL in data set [2] (4 h). For the same compound, the Concentration was determined as 91.217 ± 8.136 ng/mL in data set [2] (8 h) and 56.609 ± 10.151 ng/mL in data set [2] (12 h).
